The nature of series [1]: Phase II clinical trial with dnaJP1 in RA: safety, adverse events. Conditions: 25 mg per os daily, 168 days. It is filed as in vivo, human. As for the experimental part: A double-blinded, placebo-controlled ITT trial was designed to test for the first time if immune tolerization to dnaJp1 observed in the trial translated into clinical amelioration of the disease. dnaJP1 was tested as a first line inducer of remission in patients with early RA.

The test system of series [2] is T cells. To be noted: human, in vivo.

Where a SMILES comes first, the peptide text is derived from it.

Experimental findings from US9707284B2, “Formulations of peptides and chloroquines for the treatment of pathogenic immune responses in immune mediated diseases” (The Regents of the University of California, priority 2006, dated 2017) are described below.

Take `C[C@H](NC(=O)[C@H](C)NC(=O)[C@H](Cc1c[nH]cn1)NC(=O)CNC(=O)[C@H](Cc1ccc(O)cc1)NC(=O)[C@H](CCC(N)=O)NC(=O)[C@H](CC(=O)O)NC(=O)[C@H](Cc1ccc(O)cc1)NC(=O)[C@H](C)NC(=O)[C@H](C)NC(=O)[C@H](CCCNC(=N)N)NC(=O)[C@H](CCCCN)NC(=O)[C@@H](N)CCC(N)=O)C(=O)N[C@@H](Cc1ccccc1)C(=O)N[C@@H](CCC(=O)O)C(=O)O` [dnaJP1, QKRAAYDQYGHAAFE] (H-QKRAAYDQYGHAAFE-OH): in series [1], the safety and tolerability result was “safe and well tolerated”. In addition, the “ability of T cells to respond to the recall antigen Tetanus Toxoid” value in series [2] is listed as “remained intact”.
